Among the data in patent publication US7939534B2, “Certain chemical entities, compositions, and methods” (Cytokinetics, Inc., priority 2006, dated 2011) are IC50 values, retold here.

The experiment deals with T1, chicken gizzard smooth muscle myosin subfragment-1 chemically crosslinked to either cardiac or skeletal actin (Gallus gallus, UniProt P10587).
T1 construct: chicken gizzard smooth muscle myosin subfragment-1; from tissue; host or cells: chicken gizzard
In words: Dose dependent smooth muscle myosin ATPase modulation (pyruvate kinase/horseradish peroxidase/pyruvate oxidase-coupled ATPase assay). It is filed as biochemical. The note with it: read-out: IC50 Arithmetic Mean. The method, then: In Vitro Model of Dose Dependent Smooth Muscle Myosin Atpase Modulation
Screening assays were performed using a pyruvate kinase and lactate dehydrogenase-coupled ATPase assay containing the following reagents: Potassium PIPES (50 mM ), MgCl2 (3 mM ), KCl (100 mM ), ATP (0.15 mM ), DTT (1 mM ), BSA (0.1 mg/ml), NADH (0.5 mM ), PEP (1.5 mM ), pyruvate kinase (4 U/ml), lactate dehydrogenase (8 U/ml), and antifoam (50 ppm) (concentrations expressed are final assay concentrations). The pH was adjusted to 6.80 at 22° C. by addition of potassium hydroxide. Lead optimization assays were performed with a more sensitive pyruvate kinase/horseradish peroxidase/pyruvate oxidase-coupled ATPase assay containing the following reagents: Potassium PIPES (12 mM ), MgCl2 (2 mM ), KCl (100 mM ), ATP (0.15 mM ), BSA (0.05 mg/ml), potassium phosphate (2 mM ), amplex red (0.1 mM ), PEP (0.1 mM ), pyruvate kinase (4 U/ml), horseradish peroxidase (0.5 U/ml), pyruvate oxidase (0.5 U/ml), and antifoam (50 ppm) (concentrations expressed are final assay concentrations). The pH was adjusted to 7.00 at 22° C. by addition of potassium hydroxide.
The protein components specific to this assay are chicken gizzard smooth muscle myosin subfragment-1 that has been chemically crosslinked to either cardiac or skeletal actin using an excess of 1-Ethyl-3-[3-dimethylaminopropyl]carbodiimide hydrochloride and N-hydroxysuccinimide. The exact concentration of the crosslinked smooth muscle myosin in the assay is determined empirically, by titration to achieve a desired rate of ATP hydrolysis. The concentration varies between protein preparations due to variations in the fraction of active molecules in each preparation.
Compound dose response assays are performed by first preparing a dilution series of test compound, each with an assay mixture containing potassium PIPES, MgCl2, KCl, ATP, BSA, potassium phosphate, amplex red, PEP, crosslinked smooth muscle actomyosin (subfragment-1), antifoam, and water. The assay is started by adding an equal volume of solution containing potassium Pipes, MgCl2, KCl, BSA, potassium phosphate, pyruvate kinase, horseradish peroxidase, pyruvate oxidase, antifoam, and water. ATP hydrolysis is monitored by measuring the fluorescence of amplex red (excitation at 480 nm, emission at 615 nm). The resulting dose response curve is fit by the 4 parameter equation y=Bottom+((Top−Bottom)/(1+((IC50/X)^Hill))). The IC50 is defined as the concentration at which ATPase activity is midway between the top and bottom of the dose response curve.
As usually defined, the IC50 is the midpoint of a concentration-inhibition curve. As to `O=C(NCc1cccnc1)c1ccc(C2=CCC3(CC2)OCCO3)nc1NCCc1cccc(F)c1` [Compound 60, (6-(1,4-dioxaspiro[4.5]dec-7-en-8-yl)-2-{[2-(3-fluorophenyl)ethyl]amino}(3-pyridyl))-N-(3-pyridylmethyl)carboxamide], the IC50 came out at 1820 nM.
Take `O=C(NCc1cccnc1)c1ccc(N2CC[C@@H](F)C2)nc1NCCc1cccc(F)c1` [Compound 104, (6-((3R)-3-fluoropyrrolidinyl)-2-{[2-(3-fluorophenyl)ethyl]amino}(3-pyridyl))-N-(3-pyridylmethyl)carboxamide]: the IC50 came out at 107 nM.
For the compound `CN1CC=C(c2ccc(C(=O)NCc3cccnc3)c(NCCc3cccc(F)c3)n2)CC1` [Compound 71, (2-{[2-(3-fluorophenyl)ethyl]amino}-6-(1-methyl(4-1,2,5,6-tetrahydropyridyl))(3-pyridyl))-N-(3-pyridylmethyl)carboxamide], the IC50 came to 4360 nM.
As for `O=C(NCc1cccnc1)c1ccc(C2=NCCO2)nc1NCCc1cccc(F)c1` [Compound 35, (2-{[2-(3-fluorophenyl)ethyl]amino}-6-(1,3-oxazolin-2-yl)(3-pyridyl))-N-(3-pyridylmethyl)carboxamide], the IC50 stood at 1500 nM.
As for `NCc1ncccc1CNC(=O)c1ccc(N2CC[C@@H](O)C2)nc1NCCc1cccc(F)c1` [Compound 36, (6-((3R)-3-hydroxypyrrolidinyl)-2-{[2-(3-fluorophenyl)ethyl]amino}(3-pyridyl))-N-{[2-(aminomethyl)(3-pyridyl)]methyl}carboxamide], the figure is 327 nM; as for `NCc1ncccc1CNC(=O)c1cc(F)c(N2CC[C@@H](O)C2)nc1NCCc1cccc(F)c1` [Compound 55, (6-((3R)-3-hydroxypyrrolidinyl)-5-fluoro-2-{[2-(3-fluorophenyl)ethyl]amino}(3-pyridyl))-N-{[2-(aminomethyl)(3-pyridyl)]methyl}carboxamide], 125 nM; as for `NCc1ncccc1CNC(=O)c1ccc(C2=CCCC2)nc1NCCc1cccc(F)c1` [Compound 37, N-{[2-(aminomethyl)(3-pyridyl)]methyl}(6-cyclopent-1-enyl-2-{[2-(3-fluorophenyl)ethyl]amino}(3-pyridyl))carboxamide], 14.6 nM.
For `NCc1ncccc1CNC(=O)c1cc(F)c(C2CC2)nc1NCCc1cccc(F)c1` [Compound 81, N-{[2-(aminomethyl)(3-pyridyl)]methyl}(6-cyclopropyl-5-fluoro-2-{[2-(3-fluorophenyl)ethyl]amino}(3-pyridyl))carboxamide] the value was 1320 nM; for `CNC(=O)CNC(=O)c1ccc(N2CCCCC2)nc1NCCc1cccc(F)c1` [Compound 106, 2-[(2-{[2-(3-fluorophenyl)ethyl]amino}-6-piperidyl(3-pyridyl))carbonylamino]-N-methylacetamide], 1120 nM.
Consider `NC(=O)CNC(=O)c1ccc(N2CCCC2)nc1NCCc1cccc(F)c1` [Compound 5, N-(carbamoylmethyl)(2-{[2-(3-fluorophenyl)ethyl]amino}-6-pyrrolidinyl(3-pyridyl))carboxamide], for which the IC50 turned out to be 1460 nM.
For `CN(C)C(=O)N1CC=C(c2ccc(C(=O)NCc3cccnc3)c(NCCc3cccc(F)c3)n2)CC1` [Compound 69, (6-[1-(N,N-dimethylcarbamoyl)(4-1,2,5,6-tetrahydropyridyl)]-2-{[2-(3-fluorophenyl)ethyl]amino}(3-pyridyl))-N-(3-pyridylmethyl)carboxamide] the value was 452 nM; for `O=C(NCc1cccnc1)c1ccc(N2CCC2)nc1NCCc1cccc(F)c1` [Compound 32, (6-azetidinyl-2-{[2-(3-fluorophenyl)ethyl]amino}(3-pyridyl))-N-(3-pyridylmethyl)carboxamide], 1170 nM.
For `O=C(NCc1cccnc1)c1ccc(N2CC[C@H](CO)C2)nc1NCCc1cccc(F)c1` [Compound 27, (6-[(3S)-3-(hydroxymethyl)pyrrolidinyl]-2-{[2-(3-fluorophenyl)ethyl]amino}(3-pyridyl))-N-(3-pyridylmethyl)carboxamide] the value was 465 nM; for `O=C(NCc1cccnc1)c1ccc(N2CCOCC2)nc1NCCc1cccc(F)c1` [Compound 87, (2-{[2-(3-fluorophenyl)ethyl]amino}-6-morpholin-4-yl(3-pyridyl))-N-(3-pyridylmethyl)carboxamide], 2670 nM.
As for `O=C(NC[C@H]1CCCN1)c1cc(F)c(N2CCCC2)nc1NCCc1cccc(F)c1` [Compound 79, N-[((2R)pyrrolidin-2-yl)methyl](5-fluoro-2-{[2-(3-fluorophenyl)ethyl]amino}-6-pyrrolidinyl(3-pyridyl))carboxamide], the figure is 1800 nM; as for `CS(=O)(=O)N1CC=C(c2ccc(C(=O)NCc3cccnc3)c(NCCc3cccc(F)c3)n2)CC1` [Compound 83, (2-{[2-(3-fluorophenyl)ethyl]amino}-6-[1-(methylsulfonyl)(4-1,2,5,6-tetrahydropyridyl)](3-pyridyl))-N-(3-pyridylmethyl)carboxamide], 6400 nM.
Take `CC(C)(C)OC(=O)NCC(=O)N1CCC[C@@H]1CNC(=O)c1cc(F)c(N2CCCC2)nc1NCCc1cccc(F)c1` [Compound 77, N-[((2R)-1-{2-[(tert-butoxy)carbonylamino]acetyl}pyrrolidin-2-yl)methyl](5-fluoro-2-{[2-(3-fluorophenyl)ethyl]amino}-6-pyrrolidinyl(3-pyridyl))carboxamide]: the IC50 is 13600 nM.
On to `CN(C)[C@@H]1CCN(c2ccc(C(=O)NCc3cccnc3)c(NCCc3cccc(F)c3)n2)C1` [Compound 92, (6-[(3R)-3-(dimethylamino)pyrrolidinyl]-2-{[2-(3-fluorophenyl)ethyl]amino}(3-pyridyl))-N-(3-pyridylmethyl)carboxamide], for which the IC50 is 76000 nM.
As for `O=C(NCc1cccnc1)c1ccc(N2CC[C@H](F)C2)nc1NCCc1cccc(F)c1` [Compound 113, (6-((3S)-3-fluoropyrrolidinyl)-2-{[2-(3-fluorophenyl)ethyl]amino}(3-pyridyl))-N-(3-pyridylmethyl)carboxamide], the figure is 431 nM.
For `O=C(NCc1cccnc1)c1ccc(C2CCCCC2)nc1NCCc1cccc(F)c1` [Compound 66, (6-cyclohexyl-2-{[2-(3-fluorophenyl)ethyl]amino}(3-pyridyl))-N-(3-pyridylmethyl)carboxamide] the value was 4170 nM; for `CN[C@H]1CCN(c2ccc(C(=O)NCc3cccnc3)c(NCCc3cccc(F)c3)n2)C1` [Compound 120, (6-[(3S)-3-(methylamino)pyrrolidinyl]-2-{[2-(3-fluorophenyl)ethyl]amino}(3-pyridyl))-N-(3-pyridylmethyl)carboxamide], 59500 nM; for `CN1CCN(c2ccc(C(=O)NCc3cccnc3)c(NCCc3cccc(F)c3)n2)CC1` [Compound 22, (2-{[2-(3-fluorophenyl)ethyl]amino}-6-(4-methylpiperazinyl)(3-pyridyl))-N-(3-pyridylmethyl)carboxamide], 59900 nM.
Take `CC(=O)NC1CCN(c2ccc(C(=O)NCc3cccnc3)c(NCCc3cccc(F)c3)n2)C1` (centres unmarked) [Compound 118, N-[1-(6-{[2-(3-fluorophenyl)ethyl]amino}-5-[N-(3-pyridylmethyl)carbamoyl]-2-pyridyl)pyrrolidin-3-yl]acetamide]: the IC50 amounted to 20700 nM.
